# Measurements reported in ChEMBL document CHEMBL1142688, “Development and preliminary optimization of indole-N-acetamide inhibitors of hepatitis C virus NS5B polymerase” (J Med Chem, 2005).
# How the values were obtained:
# [1] = target: T1, RNA-directed RNA polymerase (Hepacivirus hominis, UniProt O39930); test: Inhibitory activity against RNA dependent RNA polymerase nonstructural protein 5B in hepatitis C virus; n=1
# [2] = (§1) Cytotoxic concentration against hepatitis C virus; assay type: functional, Hepacivirus hominis
# [3] = Half life after administration of 20 mg/kg in dog; assay type: ADME, organism-based, Canis lupus familiaris; design: dose 20 mg/kg; settings: in vivo
# [4] = Total clearance after administration of 20 mg/kg in dog; assay type: ADME, organism-based, Canis lupus familiaris; design: dose 20 mg/kg; settings: in vivo
# Hepacivirus hominis = test: Concentration to inhibit hepatitis C virus replication by 85%; assay type: functional
# [5] = target: T1, RNA-directed RNA polymerase; test: Inhibitory concentration against RNA dependent RNA polymerase nonstructural protein 5B of hepatitis C virus
# [6] = target: T1, RNA-directed RNA polymerase; test: Inhibitory concentration against NS5B polymerase of Hepatitis C virus; n=1
# Hepatitis C virus [7] = test: Effective concentration to inhibit RNA replication in hepatitis C virus; assay type: functional, organism-based, Hepacivirus hominis
# Hepatitis C virus [8] = test: as §1; assay type: functional, Hepacivirus hominis
# [9] = target: T1, RNA-directed RNA polymerase; test: Effective concentration to inhibit the activity of RNA dependent RNA polymerase nonstructural protein 5B in hepatitis C virus; n=1
# T1 sequence (O39930 whole entry): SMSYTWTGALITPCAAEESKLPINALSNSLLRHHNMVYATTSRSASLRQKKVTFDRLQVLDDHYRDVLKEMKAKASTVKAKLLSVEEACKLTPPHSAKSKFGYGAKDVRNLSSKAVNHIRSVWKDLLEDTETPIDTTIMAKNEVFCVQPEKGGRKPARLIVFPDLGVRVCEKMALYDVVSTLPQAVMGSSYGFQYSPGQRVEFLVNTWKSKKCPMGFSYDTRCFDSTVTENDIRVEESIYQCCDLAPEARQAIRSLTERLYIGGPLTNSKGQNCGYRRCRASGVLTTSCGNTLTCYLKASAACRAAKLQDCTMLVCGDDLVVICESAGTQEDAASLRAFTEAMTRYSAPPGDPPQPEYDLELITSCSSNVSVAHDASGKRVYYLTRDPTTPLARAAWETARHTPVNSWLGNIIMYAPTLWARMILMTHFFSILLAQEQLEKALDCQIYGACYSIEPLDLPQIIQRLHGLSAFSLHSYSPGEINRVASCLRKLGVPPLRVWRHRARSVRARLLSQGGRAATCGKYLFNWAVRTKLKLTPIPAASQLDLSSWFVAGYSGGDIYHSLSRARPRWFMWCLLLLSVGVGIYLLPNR
IC50 [1],SMILES,CC50 [2],also measured
0.048 µM,O=C(O)c1ccc2c(C3CCCCC3)c(-c3ccccc3)[nH]c2c1,–,–
0.059 µM,CN(C)C(=O)Cn1c(-c2ccccc2)c(C2CCCCC2)c2ccc(C(=O)O)cc21,> 50 µM,half-life [3]: 4.8 h; clearance [4]: 3 mL/min/kg
0.017 µM,Cc1ccc(-c2c(C3CCCCC3)c3ccc(C(=O)O)cc3n2CC(=O)N(C)C)cc1,> 50 µM,–
0.028 µM,Cn1c(-c2ccccc2)c(C2CCCCC2)c2ccc(C(=O)O)cc21,–,–
0.018 µM,COc1ccc(-c2c(C3CCCCC3)c3ccc(C(=O)O)cc3n2CC(=O)N(C)C)cc1,> 50 µM,–
0.011 µM,Cc1ccc(-c2c(C3CCCCC3)c3ccc(C(=O)O)cc3n2CC(=O)N2CCOCC2)cc1,–,CC50 (Hepatitis C virus [8]): > 50 µM; EC50 [9]: 0.3 µM

# More lines, now with the values behind:
SMILES,IC50 [1],CC50 [2],also measured
O=C(O)c1ccc2c(C3CCCCC3)c(-c3ccccc3)n(CCN3CCOCC3)c2c1,0.111 µM,–,–
CS(=O)(=O)NC(=O)Cn1c(-c2ccccc2)c(C2CCCCC2)c2ccc(C(=O)O)cc21,0.045 µM,–,–
O=C(O)c1ccc2c(C3CCCCC3)c(-c3ccccc3)n(Cc3ccccc3)c2c1,0.037 µM,–,–
CN(C)C(=O)Cn1c(-c2ccc(OCc3ccccc3)cc2)c(C2CCCCC2)c2ccc(C(=O)O)cc21,0.006 µM,> 50 µM,Concentration (Hepacivirus hominis): 0.3 µM
O=C(O)c1ccc2c(c1)nc(-c1ccc(O)cc1F)n2C1CCCCC1,–,–,IC50 [5]: 0.0014 µM
CN(C)C(=O)Cn1c(-c2cccc(Cl)c2)c(C2CCCCC2)c2ccc(C(=O)O)cc21,0.04 µM,> 50 µM,–
O=C(O)c1ccc2c(C3CCCCC3)c(-c3ccc(O)cc3)[nH]c2c1,–,–,IC50 [5]: 0.0048 µM
O=C(O)c1ccc2c(C3CCCCC3)c(-c3ccccc3)n(S(=O)(=O)c3ccccc3)c2c1,0.485 µM,–,–
CN(C)C(=O)Cn1c(-c2ccc(Cl)cc2)c(C2CCCCC2)c2ccc(C(=O)O)cc21,–,> 50 µM,IC50 [6]: 0.015 µM
CN(C)C(=O)Cn1c(-c2ccccc2Cl)c(C2CCCCC2)c2ccc(C(=O)O)cc21,0.372 µM,> 50 µM,–
O=C(O)c1ccc2c(c1)nc(-c1ccc(O)cc1)n2C1CCCCC1,–,–,IC50 [5]: 0.003 µM
O=C(O)c1ccc2c(C3CCCCC3)c(-c3ccccc3)n(CC(=O)N3CCOCC3)c2c1,0.026 µM,> 50 µM,–
O=C(O)c1ccc2c(c1)cc(-c1ccc(O)cc1)n2C1CCCCC1,–,–,IC50 [5]: 0.34 µM
O=C(O)c1ccc2c(c1)nc(-c1ccc(OCc3cc(C(=O)N4CCC(O)CC4)ccc3-c3ccc(Cl)cc3)cc1F)n2C1CCCCC1,–,–,IC50 [5]: < 0.006 µM; EC50 (Hepatitis C virus [7]): 0.5 µM
CN(C)C(=O)Cn1c(-c2cccc(F)c2)c(C2CCCCC2)c2ccc(C(=O)O)cc21,0.018 µM,> 50 µM,–
